19 compounds from US20230002397A1, “SMALL MOLECULE DEGRADERS OF HELIOS AND METODS OF USE” (DANA-FARBER CANCER INSTITUTE, INC., priority 2019, published 2023) can be followed below.

The target of this experiment is T1, IKZF2 (Homo sapiens, UniProt Q96SW2+Q9UKS7).
T1 construct: CRISPR/Cas9—mediated insertion of the HiBiT peptide tag (Promega™) to the N-terminus of the IKZF2 gene locus; endogenous in cells; host or cells: MOLT4 cells, with CRISPR/Cas9 knock-in of HiBiT at the endogenous IKZF2 locus
The experiment can be described thus: HiBit-IKZF2 assay (HiBiT-Helios degradation in MOLT4 cells). It is filed as cell-based. Particulars: for Dmax: MOLT-4, extent of degradation from highest to lowest concentration, 10 μM to 0.00026 μM, read-out: Dmax; for DC50: concentration at which 50% of HiBiT-Helios degradation was achieved. The protocol: The HiBiT protein tagging system was applied to MOLT4 cells via a CRISPR/Cas9—mediated insertion of the HiBiT peptide tag (Promega™) to the N-terminus of the IKZF2 gene locus (Neon™ Transfection System). The resulting HiBiT-Helios stable cell line was treated with the following compounds in triplicates following a 13-point concentration scheme ranging from 10 μM to 0.00026 μM. At the indicated timepoints, the Nano-Glo® HiBiT Lytic Detection System (Promega™) was utilized for detecting bioluminescence of the HiBiT tag in treated cells: abundance of the tag is proportionate to the level of luminescence. Following normalization to DMSO, dose-response curves were plotted (GraphPad Prism) to determine the concentration points at which 50% of HiBiT-Helios degradation was achieved by each compound. The extent of degradation (range of luminescence) from the highest to lowest concentration points was calculated to determine the Dmax.
A general note: With HiBiT, luminescence reflects the tagged protein that the partner subunit can reach.

Some results are limits rather than exact numbers.

T1 sequence (Q9UKS7 whole entry): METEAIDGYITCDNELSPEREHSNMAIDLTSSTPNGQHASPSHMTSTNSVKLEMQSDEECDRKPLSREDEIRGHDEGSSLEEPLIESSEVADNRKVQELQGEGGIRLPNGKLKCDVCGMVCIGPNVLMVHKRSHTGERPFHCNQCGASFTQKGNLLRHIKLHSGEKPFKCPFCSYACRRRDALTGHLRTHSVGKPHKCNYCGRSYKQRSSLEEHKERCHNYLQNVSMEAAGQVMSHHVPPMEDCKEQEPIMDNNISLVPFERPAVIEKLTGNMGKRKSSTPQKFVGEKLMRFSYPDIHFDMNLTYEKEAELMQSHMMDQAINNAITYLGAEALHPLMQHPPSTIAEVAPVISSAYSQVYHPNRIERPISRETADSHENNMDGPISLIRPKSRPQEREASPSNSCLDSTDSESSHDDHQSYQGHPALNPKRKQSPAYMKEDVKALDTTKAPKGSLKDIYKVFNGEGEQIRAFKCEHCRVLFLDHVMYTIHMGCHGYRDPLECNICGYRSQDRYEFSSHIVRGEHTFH
T1 sequence (Q96SW2 whole entry): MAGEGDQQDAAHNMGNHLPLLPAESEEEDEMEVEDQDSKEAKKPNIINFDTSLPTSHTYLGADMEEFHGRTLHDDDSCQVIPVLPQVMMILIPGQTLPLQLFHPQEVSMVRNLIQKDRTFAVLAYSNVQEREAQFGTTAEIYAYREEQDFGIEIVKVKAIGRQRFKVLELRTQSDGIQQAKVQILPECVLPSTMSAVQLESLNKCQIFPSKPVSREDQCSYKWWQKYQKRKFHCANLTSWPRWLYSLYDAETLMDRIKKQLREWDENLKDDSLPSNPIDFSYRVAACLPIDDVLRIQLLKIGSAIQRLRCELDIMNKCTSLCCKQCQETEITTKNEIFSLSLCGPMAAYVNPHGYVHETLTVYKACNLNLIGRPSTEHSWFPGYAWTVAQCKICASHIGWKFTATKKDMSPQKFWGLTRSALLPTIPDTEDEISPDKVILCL
T1 sequence (Q16531 whole entry partner): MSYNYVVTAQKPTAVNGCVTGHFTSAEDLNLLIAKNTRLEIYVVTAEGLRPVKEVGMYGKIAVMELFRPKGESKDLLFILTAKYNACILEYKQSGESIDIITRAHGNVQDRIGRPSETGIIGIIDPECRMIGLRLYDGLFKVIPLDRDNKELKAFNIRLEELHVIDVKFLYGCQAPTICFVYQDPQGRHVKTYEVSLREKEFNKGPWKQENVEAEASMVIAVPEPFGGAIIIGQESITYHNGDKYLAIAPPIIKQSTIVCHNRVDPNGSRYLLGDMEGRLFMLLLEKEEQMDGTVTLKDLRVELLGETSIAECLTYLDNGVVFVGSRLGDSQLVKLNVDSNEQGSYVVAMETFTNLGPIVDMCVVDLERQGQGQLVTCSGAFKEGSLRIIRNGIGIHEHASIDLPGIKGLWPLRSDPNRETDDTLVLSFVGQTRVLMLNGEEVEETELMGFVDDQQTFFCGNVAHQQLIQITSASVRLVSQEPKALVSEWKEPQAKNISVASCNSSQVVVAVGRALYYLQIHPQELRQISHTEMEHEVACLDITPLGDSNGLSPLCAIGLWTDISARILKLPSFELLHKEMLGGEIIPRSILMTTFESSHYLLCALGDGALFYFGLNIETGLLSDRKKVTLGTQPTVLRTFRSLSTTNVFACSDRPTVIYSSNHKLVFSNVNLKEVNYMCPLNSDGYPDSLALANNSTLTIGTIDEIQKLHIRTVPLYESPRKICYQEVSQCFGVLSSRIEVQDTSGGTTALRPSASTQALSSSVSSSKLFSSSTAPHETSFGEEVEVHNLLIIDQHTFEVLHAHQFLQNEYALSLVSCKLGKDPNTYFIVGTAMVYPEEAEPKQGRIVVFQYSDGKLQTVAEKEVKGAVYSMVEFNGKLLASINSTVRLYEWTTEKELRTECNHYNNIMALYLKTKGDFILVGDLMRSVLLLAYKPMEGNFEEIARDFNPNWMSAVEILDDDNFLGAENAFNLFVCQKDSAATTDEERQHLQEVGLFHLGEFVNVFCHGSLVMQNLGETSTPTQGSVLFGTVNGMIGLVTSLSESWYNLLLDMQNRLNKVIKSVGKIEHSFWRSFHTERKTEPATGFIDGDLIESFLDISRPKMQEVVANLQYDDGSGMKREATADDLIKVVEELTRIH

In general, Dmax refers to the greatest extent of degradation seen. In general, DC50 refers to the concentration at which degradation of the target reaches its halfway point. For `O=C1CCC(N2Cc3cc(C4CCN(Cc5cccnc5Oc5ccccc5)CC4)ccc3C2=O)C(=O)N1` (centres unmarked) [Compound 119], the maximal degradation (Dmax) lay within 30 to 50% and the DC50 lay within 30 to 150 nM.

Take `O=C1CCC(N2Cc3cc(C4CCN(Cc5ccccc5Nc5ccccn5)CC4)ccc3C2=O)C(=O)N1` (centres unmarked) [Compound 120]: the Dmax was 50 to 70% and the DC50 is 10 to 30 nM.

Consider `O=C1CCC(N2Cc3cc(C4CCN(Cc5cccc6c5C(=O)N(c5ccccc5)C6)CC4)ccc3C2=O)C(=O)N1` (centres unmarked) [Compound 121], for which the Dmax lay in the range of 30 to 50% and the DC50 fell in the range of 30 to 150 nM.

With `O=C1CCC(N2Cc3cc(C4CCN(Cc5ccnc(Nc6ccccc6)n5)CC4)ccc3C2=O)C(=O)N1` (centres unmarked) [Compound 122], the Dmax lay in the range of 30 to 50% and the DC50 is 10 to 30 nM.

`O=C1CCC(N2Cc3cc(C4CCN(Cc5ccc6c(c5)CN(c5ccccc5)C6=O)CC4)ccc3C2=O)C(=O)N1` (centres unmarked) [Compound 123]: the Dmax lay within 50 to 70% and the DC50 was 10 to 30 nM.

As to `O=C1CCC(N2Cc3cc(C4CCN(Cc5cccc6c5CN(c5ccccn5)C6=O)CC4)ccc3C2=O)C(=O)N1` (centres unmarked) [Compound 124], the Dmax is 50 to 70% and the DC50 lay within 10 to 30 nM.

Regarding `O=C1CCC(N2Cc3cc(C4CCN(Cc5cccc(N6Cc7ncccc7C6=O)c5)CC4)ccc3C2=O)C(=O)N1` (centres unmarked) [Compound 125], the Dmax was in the range of 50 to 70% and the half-maximal degradation concentration (DC50) was under 10 nM.

As to `O=C1CCC(N2Cc3cc(C4CCN(Cc5ccnc(Nc6ccccc6)c5F)CC4)ccc3C2=O)C(=O)N1` (centres unmarked) [Compound 126], the Dmax lay in the range of 50 to 70% and the DC50 was in the range of 10 to 30 nM.

As for `O=C1CCC(N2Cc3cc(C4CCN(Cc5cccc(Nc6cccnn6)c5)CC4)ccc3C2=O)C(=O)N1` (centres unmarked) [Compound 127], the Dmax lay in the range of 50 to 70% and the DC50 fell in the range of 10 to 30 nM.

For the compound `O=C1CCC(N2Cc3cc(C4CCN(Cc5cccc(N6Cc7cccnc7C6=O)c5)CC4)ccc3C2=O)C(=O)N1` (centres unmarked) [Compound 129], the Dmax lay in the range of 50 to 70% and the DC50 was in the range of 10 to 30 nM.

With `O=C1CCC(N2Cc3cc(C4CCN(Cc5ccnc(C(=O)Nc6ccccn6)c5)CC4)ccc3C2=O)C(=O)N1` (centres unmarked) [Compound 130], the Dmax lay within 50 to 70% and the DC50 fell in the range of 10 to 30 nM.

For the compound `O=C1CCC(N2Cc3cc(C4CCN(Cc5ccnc(C(=O)Nc6ccccc6)c5)CC4)ccc3C2=O)C(=O)N1` (centres unmarked) [Compound 131], the Dmax lay in the range of 50 to 70% and the DC50 lay within 30 to 150 nM.

As for `O=C1CCC(N2Cc3cc(C4CCN(Cc5cccc(Nc6ccc(F)cn6)c5)CC4)ccc3C2=O)C(=O)N1` (centres unmarked) [Compound 132], the Dmax was 50 to 70% and the half-maximal degradation concentration (DC50) is under 10 nM.

In the case of `O=C1CCC(N2Cc3cc(C4CCN(Cc5cccc(Nc6ncccc6F)c5)CC4)ccc3C2=O)C(=O)N1` (centres unmarked) [Compound 133], the greatest degradation seen (Dmax) was in the range of 50 to 70% and the DC50 was under 10 nM.

With `CP(C)(=O)c1ccccc1Nc1cccc(CN2CCC(c3ccc4c(c3)CN(C3CCC(=O)NC3=O)C4=O)CC2)c1` (centres unmarked) [Compound 134], the Dmax fell in the range of 50 to 70% and the DC50 was under 10 nM.

In the case of `CP(C)(=O)c1cccc(Nc2cccc(CN3CCC(c4ccc5c(c4)CN(C4CCC(=O)NC4=O)C5=O)CC3)c2)c1` (centres unmarked) [Compound 135, 3-(5-(1-(3-((3-(dimethylphosphoryl)phenyl)amino)benzyl)piperidin-4-yl)-1-oxoisoindolin-2-yl)piperidine-2,6-dione], the greatest degradation seen (Dmax) was 50 to 70% and the half-maximal degradation concentration (DC50) lay within 10 to 30 nM.

As for `O=C1CCC(N2Cc3cc(C4CCN(Cc5cccc(N6Cc7ccccc7S6(=O)=O)c5)CC4)ccc3C2=O)C(=O)N1` (centres unmarked) [Compound 136], the Dmax was 50 to 70% and the 50% degradation concentration (DC50) is under 10 nM.

On to `O=C1CCC(N2Cc3cc(C4CCN(Cc5ccnc(Nc6ccccc6)c5)CC4)ccc3C2=O)C(=O)N1` (centres unmarked) [Compound 137], for which the Dmax was 50 to 70% and the DC50 is under 10 nM.

For the compound `CP(C)(=O)c1ccccc1NC(=O)c1cccc(CN2CCC(c3ccc4c(c3)CN(C3CCC(=O)NC3=O)C4=O)CC2)c1` (centres unmarked) [Compound 138], the Dmax was in the range of 50 to 70% and the DC50 is under 10 nM.
